Measured values from publication PMC8774190, “Characterization and Modification of Light-Sensitive Phosphodiesterases from Choanoflagellates” (Biomolecules, 2022).

Tested on: T1, CfRhoPDE1
T1 construct: full-length with N-terminal YFP tag kept; gene codon-optimised to Mus musculus, pGEMHE vector; Xenopus oocyte membrane fraction; all-trans retinal supplied
Experiment: cGMP hydrolysis by oocyte membranes, chemiluminescent immunoassay, Michaelis-Menten fit
Assay type: biochemical, Choanoeca flexa
Details: dark; pH 7.3, 5 mM MgCl2, 100 mM NaCl, 5 mM DTT; 1-100 μM cGMP

## Nc1nc2c(ncn2[C@@H]2O[C@@H]3COP(=O)(O)O[C@H]3[C@H]2O)c(=O)[nH]1 [cGMP]
  Km: ~15 µM
